Patent US9682995B2, “Amino-substituted isothiazoles” (BAYER PHARMA AKTIENGESELLSCHAFT, priority 2013, dated 2017)

Key:
[1] = test system: spindle assembly checkpoint; assay: SAC-Formation - Nocodazole-Induced Assay; assay type: cell-based; conditions: Homo sapiens; HeLa cells, nocodazole 0.1 μg/ml, 24 h, phosphorylated histone H3 on serine 10
In short: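 HeLa cells were given nocodazole at 0.1 μg/ml final together with compounds (0.005–20 μM, 0.5% DMSO) for 24 h at 37° C. Mitotic cells were counted by phospho-histone H3 Ser10 immunostaining, with cell number from HOECHST 33342, by high-content imaging. The loss of mitotic cells was fitted with a four-parameter Hill equation.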

[2] = test system: spindle assembly checkpoint; assay: SAC-Formation - Paclitaxel-Induced Assay; assay type: cell-based; conditions: Homo sapiens; HeLa cells, paclitaxel 0.05 μM, 24 h, phosphorylated histone H3 on serine 10
In short: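 HeLa cells were plated overnight, then given paclitaxel (0.05 μM final) plus compound (0.005-20 μM, 0.5% DMSO) for 24 h at 37° C. Fixed cells were stained for phospho-histone H3 Ser10 and with Hoechst, then imaged to give mitotic index. A fall in mitotic cells marks SAC breakthrough, and values were fit with a four-parameter Hill equation.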

Row | IC50 [1] | IC50 [2] | SMILES
1 | 41 nM | 72 nM | Cc1nsc(Nc2ccc(C#N)cn2)c1C(=O)Nc1ccc(F)c(F)c1 [Example 28, 5-[(5-Cyanopyridin-2-yl)amino]-N-(3,4-difluorophenyl)-3-methyl-1,2-thiazole-4-carboxamide]
2 | 240 nM | 820 nM | Cc1nsc(Nc2nc3c(C(F)(F)F)ccnc3s2)c1C(=O)Nc1ccc(Cl)c(F)c1 [Example 103, N-(4-Chloro-3-fluorophenyl)-3-methyl-5-{[7-(trifluoromethyl)[1,3]thiazolo[5,4-b]pyridin-2-yl]amino}-1,2-thiazole-4-carboxamide]
3 | 220 nM | 790 nM | Cc1nsc(Nc2nc3c(C(F)(F)F)cccc3s2)c1C(=O)Nc1ccc(Cl)c(Cl)c1 [Example 102, N-(3,4-Dichlorophenyl)-3-methyl-5-{[4-(trifluoromethyl)-1,3-benzothiazol-2-yl]amino}-1,2-thiazole-4-carboxamide]
4 | 510 nM | 1200 nM | COC(=O)c1cnc(Nc2snc(C)c2C(=O)Nc2ccc(OC)nc2)cn1 [Example 32, Methyl 5-({4-[(6-methoxypyridin-3-yl)carbamoyl]-3-methyl-1,2-thiazol-5-yl}amino)-pyrazine-2-carboxylate]
5 | 200 nM | 730 nM | CCc1ccccc1NC(=O)c1c(C)nsc1Nc1cnc2cccc(C)c2n1 [Example 33, N-(2-Ethylphenyl)-3-methyl-5-[(8-methylquinoxalin-2-yl)amino]-1,2-thiazole-4-carboxamide]
6 | 680 nM | 1200 nM | CCc1ccccc1NC(=O)c1c(C)nsc1Nc1ccnc(C#N)n1 [Example 6, 5-[(2-Cyanopyrimidin-4-yl)amino]-N-(2-ethylphenyl)-3-methyl-1,2-thiazole-4-carboxamide]
7 | 200 nM | 490 nM | COc1ccc(NC(=O)c2c(C)nsc2Nc2cnc3ccc(F)cc3n2)cn1 [Example 44, 5-[(7-Fluoroquinoxalin-2-yl)amino]-N-(6-methoxypyridin-3-yl)-3-methyl-1,2-thiazole-4-carboxamide]
8 | 1600 nM | 4800 nM | COc1ccc(Oc2ccc(NC(=O)c3c(C)nsc3Nc3cnc4ccccc4n3)cn2)cc1 [Example 116, N-[6-(4-Methoxyphenoxy)pyridin-3-yl]-3-methyl-5-(quinoxaline-2-ylamino)-1,2-thiazole-4-carboxamide]
9 | 340 nM | 590 nM | Cc1nsc(Nc2nc3c(C(F)(F)F)cccc3s2)c1C(=O)Nc1ccc(Cl)c(F)c1 [Example 53, N-(4-Chloro-3-fluorophenyl)-3-methyl-5-{[4-(trifluoromethyl)-1,3-benzothiazol-2-yl]amino}-1,2-thiazole-4-carboxamide]
10 | 1800 nM | 20000 nM | CNC(=O)c1ccnc(Nc2snc(C)c2C(=O)Nc2ccc(F)c(F)c2)c1 [Example 108, 2-({4-[(3,4-Difluorophenyl)-carbamoyl]-3-methyl-1,2-thiazol-5-yl}amino)-N-methyliso-nicotinamide]
11 | 1100 nM | 1900 nM | Cc1nsc(Nc2cnc(C(=O)N(C)C)cn2)c1C(=O)Nc1ccc(F)c(F)c1 [Example 109, 5-({4-[(3,4-Difluorophenyl)carbamoyl]-3-methyl-1,2-thiazol-5-yl}amino)-N,N-dimethylpyrazine-2-carboxamide]
